The record followed here is PMC12136037, “Type II kinase inhibitors that target Parkinson’s disease–associated LRRK2” (Science Advances, 2025).

Assay in all cases: DSF 100 kinase selectivity screen;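 on dTm: compound tested at 20 µM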
Assay type in all cases: binding

Assay [1] has as its target T1, ~100 representative kinases (Homo sapiens, UniProt P17948).
T1 construct: Recombinant protein kinase domains with a concentration of 2 μM
Particulars: protein FLT1; average of three replicates. The procedure: (§1) Recombinant protein kinase domains with a concentration of 2 μM were mixed with a 20 μM compound solution in dimethyl sulfoxide (DMSO), 20 mM Hepes (pH 7.5), and 500 mM NaCl. SYPRO Orange (5000×, Invitrogen) was added as a fluorescence probe (1μl/ml). Subsequently, temperature-dependent protein unfolding profiles were measured using the QuantStudio 5 realtime PCR machine (Thermo Fisher Scientific, Waltham, MA, USA). […] The temperature was raised with a step rate of 3°C/min. […] Differences in melting temperature are given as ΔTm values in degrees Celsius. […]

In assay [2] the target is T2, ~100 representative kinases (Homo sapiens, UniProt P24941).
T2 construct: Recombinant protein kinase domains with a concentration of 2 μM
Conditions: Protein CDK2; average of three replicates. The procedure:
as §1

The target in assay [3] is T3, ~100 representative kinases (Homo sapiens, UniProt P49674).
T3 construct: Recombinant protein kinase domains with a concentration of 2 μM
Conditions: Protein CSNK1E; average of three replicates. The procedure:
as §1

The target of assay [4] is T4, ~100 representative kinases (Homo sapiens, UniProt P51813).
T4 construct: Recombinant protein kinase domains with a concentration of 2 μM
T4 sequence (P51813 1-675): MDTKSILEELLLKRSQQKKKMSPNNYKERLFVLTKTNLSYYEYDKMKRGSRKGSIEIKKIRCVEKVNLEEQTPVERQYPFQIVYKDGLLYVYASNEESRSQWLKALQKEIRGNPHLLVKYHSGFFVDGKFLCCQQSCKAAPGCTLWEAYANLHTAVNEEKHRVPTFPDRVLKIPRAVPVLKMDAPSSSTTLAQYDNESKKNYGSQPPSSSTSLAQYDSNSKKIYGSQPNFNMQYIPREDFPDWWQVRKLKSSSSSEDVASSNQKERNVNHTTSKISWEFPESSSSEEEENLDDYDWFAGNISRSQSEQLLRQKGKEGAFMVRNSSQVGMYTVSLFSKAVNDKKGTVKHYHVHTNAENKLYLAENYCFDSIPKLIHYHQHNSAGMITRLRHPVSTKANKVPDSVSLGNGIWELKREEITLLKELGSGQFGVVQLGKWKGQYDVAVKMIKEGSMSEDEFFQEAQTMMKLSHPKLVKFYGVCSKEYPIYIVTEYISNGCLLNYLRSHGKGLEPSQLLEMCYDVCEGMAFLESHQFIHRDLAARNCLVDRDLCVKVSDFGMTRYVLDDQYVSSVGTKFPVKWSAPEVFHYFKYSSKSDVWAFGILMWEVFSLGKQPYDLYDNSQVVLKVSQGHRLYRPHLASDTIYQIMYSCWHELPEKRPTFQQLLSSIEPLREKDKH
Particulars: Protein BMX; average of three replicates. Here is the method: as §1

The target of assay [5] is T5, ~100 representative kinases (Homo sapiens, UniProt Q13554).
T5 construct: Recombinant protein kinase domains with a concentration of 2 μM
Conditions: Protein CAMK2B; average of three replicates. Here is the method:
as §1

The target of assay [6] is T6, ~100 representative kinases (Homo sapiens, UniProt Q13627).
T6 construct: Recombinant protein kinase domains with a concentration of 2 μM
Conditions: Protein DYRK1A; average of three replicates. Here is the method: as §1

For assay [7], the target named is T7, ~100 representative kinases (Homo sapiens, UniProt Q92630).
T7 construct: Recombinant protein kinase domains with a concentration of 2 μM
T7 sequence (Q92630 1-601): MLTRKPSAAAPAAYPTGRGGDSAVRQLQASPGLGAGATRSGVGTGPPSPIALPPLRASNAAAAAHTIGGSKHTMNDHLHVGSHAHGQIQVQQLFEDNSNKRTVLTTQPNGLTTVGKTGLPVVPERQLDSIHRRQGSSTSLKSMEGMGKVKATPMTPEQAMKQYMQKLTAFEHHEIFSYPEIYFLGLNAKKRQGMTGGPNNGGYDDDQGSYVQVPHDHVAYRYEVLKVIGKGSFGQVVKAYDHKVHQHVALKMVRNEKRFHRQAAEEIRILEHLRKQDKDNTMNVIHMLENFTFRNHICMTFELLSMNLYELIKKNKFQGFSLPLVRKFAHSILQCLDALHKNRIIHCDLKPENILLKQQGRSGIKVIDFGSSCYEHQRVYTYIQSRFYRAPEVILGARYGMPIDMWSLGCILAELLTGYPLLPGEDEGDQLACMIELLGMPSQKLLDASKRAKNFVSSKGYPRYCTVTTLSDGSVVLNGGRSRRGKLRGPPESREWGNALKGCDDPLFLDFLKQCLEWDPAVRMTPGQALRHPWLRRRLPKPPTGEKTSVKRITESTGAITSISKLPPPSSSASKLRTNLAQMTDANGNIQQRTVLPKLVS
Conditions: Protein DYRK2; average of three replicates. Here is the method:
as §1

Assay [8] addresses T8, ~100 representative kinases (Homo sapiens, UniProt Q99640).
T8 construct: Recombinant protein kinase domains with a concentration of 2 μM
T8 sequence (Q99640 1-499): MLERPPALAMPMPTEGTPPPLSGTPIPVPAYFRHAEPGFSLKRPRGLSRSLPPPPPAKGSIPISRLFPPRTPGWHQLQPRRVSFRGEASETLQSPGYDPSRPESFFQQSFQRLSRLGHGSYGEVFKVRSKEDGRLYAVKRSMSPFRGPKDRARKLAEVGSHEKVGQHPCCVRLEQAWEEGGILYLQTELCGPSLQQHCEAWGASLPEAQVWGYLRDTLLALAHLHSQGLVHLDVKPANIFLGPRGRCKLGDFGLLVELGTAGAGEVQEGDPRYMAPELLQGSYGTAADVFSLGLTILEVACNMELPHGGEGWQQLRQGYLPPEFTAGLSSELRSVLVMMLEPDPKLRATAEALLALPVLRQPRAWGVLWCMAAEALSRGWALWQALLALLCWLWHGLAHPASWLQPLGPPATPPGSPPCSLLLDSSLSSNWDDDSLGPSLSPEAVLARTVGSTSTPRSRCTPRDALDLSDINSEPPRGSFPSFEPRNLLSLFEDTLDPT
Particulars: protein PKMYT1; average of three replicates. Here is the method: as §1

The target in assay [9] is T9, ~100 representative kinases (Homo sapiens, UniProt Q9H4A3).
T9 construct: Recombinant protein kinase domains with a concentration of 2 μM
Conditions: Protein WNK1; DSF; average of three replicates. Here is the method: as §1

Assay [10] has as its target T10, ~100 representative kinases (Homo sapiens, UniProt Q9NSY1).
T10 construct: Recombinant protein kinase domains with a concentration of 2 μM
Particulars: Protein BMP2K; average of three replicates. Here is the method: as §1

The target in assay [11] is T11, ~100 representative kinases (Homo sapiens, UniProt Q9UPE1).
T11 construct: Recombinant protein kinase domains with a concentration of 2 μM
Conditions: Protein SRPK3; DSF; average of three replicates. Here is the method:
as §1

Assay [12] concerns the target T12, ~100 representative kinases (Homo sapiens, UniProt Q9Y2H1).
T12 construct: Recombinant protein kinase domains with a concentration of 2 μM
Conditions: Protein STK38L; DSF; average of three replicates. Here is the method:
as §1

The test system of assay [13] is ~100 representative kinases. Conditions: for dTm: Protein BRD, average of three replicates; for # >5K: number of proteins of the DSF panel with dTm >5K. Here is the method:
as §1

Where [14] appears, read: number of kinases with thermal shift >5 K divided by total number of kinases screened.
Setting [15] is: selectivity score: # >5K divided by # of proteins tested in the DSF panel.

SMILES strings stand for the structures.

T1 sequence (P17948 27-1338): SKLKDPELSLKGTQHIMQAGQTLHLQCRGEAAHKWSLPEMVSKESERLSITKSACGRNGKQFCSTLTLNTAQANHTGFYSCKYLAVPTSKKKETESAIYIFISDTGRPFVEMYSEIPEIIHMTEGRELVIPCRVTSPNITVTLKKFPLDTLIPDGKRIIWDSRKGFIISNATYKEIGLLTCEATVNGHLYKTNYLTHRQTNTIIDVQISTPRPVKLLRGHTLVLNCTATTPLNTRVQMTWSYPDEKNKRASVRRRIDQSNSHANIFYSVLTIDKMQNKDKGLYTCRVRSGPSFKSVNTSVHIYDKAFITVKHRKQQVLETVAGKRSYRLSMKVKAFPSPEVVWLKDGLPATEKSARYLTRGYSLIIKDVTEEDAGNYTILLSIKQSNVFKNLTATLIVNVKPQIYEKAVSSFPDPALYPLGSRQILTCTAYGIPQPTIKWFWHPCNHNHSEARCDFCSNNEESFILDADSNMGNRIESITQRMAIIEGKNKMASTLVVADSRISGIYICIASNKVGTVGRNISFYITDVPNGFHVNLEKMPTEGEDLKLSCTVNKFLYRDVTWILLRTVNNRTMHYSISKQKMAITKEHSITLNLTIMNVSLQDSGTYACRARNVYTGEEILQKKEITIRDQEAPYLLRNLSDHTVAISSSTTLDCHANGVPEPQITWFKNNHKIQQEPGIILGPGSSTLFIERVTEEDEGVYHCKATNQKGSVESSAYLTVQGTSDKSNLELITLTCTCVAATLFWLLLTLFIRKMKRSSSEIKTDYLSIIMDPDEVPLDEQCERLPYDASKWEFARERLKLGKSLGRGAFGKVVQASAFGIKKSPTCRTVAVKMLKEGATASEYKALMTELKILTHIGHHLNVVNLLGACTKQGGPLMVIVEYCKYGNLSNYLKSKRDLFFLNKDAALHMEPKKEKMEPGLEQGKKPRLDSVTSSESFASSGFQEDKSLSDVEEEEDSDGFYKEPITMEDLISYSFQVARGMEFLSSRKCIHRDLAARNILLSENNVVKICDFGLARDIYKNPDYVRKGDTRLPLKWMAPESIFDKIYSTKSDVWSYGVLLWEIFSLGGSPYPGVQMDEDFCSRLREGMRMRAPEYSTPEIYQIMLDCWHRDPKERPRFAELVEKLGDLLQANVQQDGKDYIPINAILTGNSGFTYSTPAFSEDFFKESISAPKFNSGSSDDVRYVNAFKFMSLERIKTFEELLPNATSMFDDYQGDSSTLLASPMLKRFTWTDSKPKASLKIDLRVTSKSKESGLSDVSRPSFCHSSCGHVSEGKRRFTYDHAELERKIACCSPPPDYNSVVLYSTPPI
T3 sequence (P49674 whole entry, the tested form may be a part): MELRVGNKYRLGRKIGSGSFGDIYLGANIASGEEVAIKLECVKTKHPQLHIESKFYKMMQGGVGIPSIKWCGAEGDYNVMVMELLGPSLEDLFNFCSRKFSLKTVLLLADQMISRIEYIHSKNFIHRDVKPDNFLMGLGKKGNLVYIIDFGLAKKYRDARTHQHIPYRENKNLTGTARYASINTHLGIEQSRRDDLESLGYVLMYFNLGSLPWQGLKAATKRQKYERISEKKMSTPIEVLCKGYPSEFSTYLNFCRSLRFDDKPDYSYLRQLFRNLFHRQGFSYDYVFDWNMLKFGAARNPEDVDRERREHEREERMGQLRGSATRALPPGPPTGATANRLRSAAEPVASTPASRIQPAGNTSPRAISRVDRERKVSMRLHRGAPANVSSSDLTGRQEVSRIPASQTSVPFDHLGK
T10 sequence (Q9NSY1 whole entry, the tested form may be a part): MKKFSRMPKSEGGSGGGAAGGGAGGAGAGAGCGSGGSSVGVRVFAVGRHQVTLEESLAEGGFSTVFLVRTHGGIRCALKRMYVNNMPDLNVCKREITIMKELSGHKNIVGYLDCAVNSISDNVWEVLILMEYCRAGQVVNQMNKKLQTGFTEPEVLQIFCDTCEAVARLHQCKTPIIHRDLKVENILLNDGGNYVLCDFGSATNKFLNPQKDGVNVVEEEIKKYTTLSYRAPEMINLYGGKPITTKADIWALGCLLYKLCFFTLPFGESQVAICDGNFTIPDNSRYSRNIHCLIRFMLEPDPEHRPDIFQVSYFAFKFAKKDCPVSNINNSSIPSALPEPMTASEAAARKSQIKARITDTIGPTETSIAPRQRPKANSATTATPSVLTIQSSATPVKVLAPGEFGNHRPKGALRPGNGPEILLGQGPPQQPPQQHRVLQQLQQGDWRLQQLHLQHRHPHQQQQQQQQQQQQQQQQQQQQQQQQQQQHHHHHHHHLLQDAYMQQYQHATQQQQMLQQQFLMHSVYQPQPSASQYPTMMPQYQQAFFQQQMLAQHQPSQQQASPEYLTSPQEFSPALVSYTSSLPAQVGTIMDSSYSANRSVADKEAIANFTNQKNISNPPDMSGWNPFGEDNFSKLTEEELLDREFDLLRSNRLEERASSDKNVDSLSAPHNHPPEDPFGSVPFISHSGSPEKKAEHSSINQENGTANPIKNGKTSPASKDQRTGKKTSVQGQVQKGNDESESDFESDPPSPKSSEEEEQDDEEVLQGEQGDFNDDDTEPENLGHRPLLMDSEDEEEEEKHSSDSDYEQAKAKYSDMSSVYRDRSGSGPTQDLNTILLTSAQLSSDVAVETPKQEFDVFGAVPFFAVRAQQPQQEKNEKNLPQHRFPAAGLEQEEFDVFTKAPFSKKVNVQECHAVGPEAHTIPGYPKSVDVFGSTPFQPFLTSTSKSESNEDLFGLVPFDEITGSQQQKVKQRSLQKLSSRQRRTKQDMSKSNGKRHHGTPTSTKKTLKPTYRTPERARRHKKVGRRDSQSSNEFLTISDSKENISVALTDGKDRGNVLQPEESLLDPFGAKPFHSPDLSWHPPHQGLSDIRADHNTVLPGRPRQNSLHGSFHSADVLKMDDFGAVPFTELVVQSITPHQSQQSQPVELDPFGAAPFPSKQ
T5 sequence (Q13554 whole entry, the tested form may be a part): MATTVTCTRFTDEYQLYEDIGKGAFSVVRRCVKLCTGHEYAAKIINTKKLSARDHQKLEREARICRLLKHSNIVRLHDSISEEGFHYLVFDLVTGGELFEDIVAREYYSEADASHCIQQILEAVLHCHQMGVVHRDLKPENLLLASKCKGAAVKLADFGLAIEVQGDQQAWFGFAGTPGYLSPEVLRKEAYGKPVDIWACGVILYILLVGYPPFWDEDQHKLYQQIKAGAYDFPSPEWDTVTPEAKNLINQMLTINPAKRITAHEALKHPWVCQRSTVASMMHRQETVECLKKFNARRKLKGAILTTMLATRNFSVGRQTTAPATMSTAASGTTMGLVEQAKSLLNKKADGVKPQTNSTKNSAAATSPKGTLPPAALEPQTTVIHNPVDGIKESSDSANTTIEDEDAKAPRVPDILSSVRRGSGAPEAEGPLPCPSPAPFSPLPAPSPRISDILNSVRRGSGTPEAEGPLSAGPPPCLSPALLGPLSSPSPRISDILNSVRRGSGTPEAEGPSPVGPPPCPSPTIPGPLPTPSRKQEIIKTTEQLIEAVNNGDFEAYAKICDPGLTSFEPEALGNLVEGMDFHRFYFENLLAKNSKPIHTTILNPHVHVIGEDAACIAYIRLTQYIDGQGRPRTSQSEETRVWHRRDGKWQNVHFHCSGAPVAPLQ
T12 sequence (Q9Y2H1 whole entry, the tested form may be a part): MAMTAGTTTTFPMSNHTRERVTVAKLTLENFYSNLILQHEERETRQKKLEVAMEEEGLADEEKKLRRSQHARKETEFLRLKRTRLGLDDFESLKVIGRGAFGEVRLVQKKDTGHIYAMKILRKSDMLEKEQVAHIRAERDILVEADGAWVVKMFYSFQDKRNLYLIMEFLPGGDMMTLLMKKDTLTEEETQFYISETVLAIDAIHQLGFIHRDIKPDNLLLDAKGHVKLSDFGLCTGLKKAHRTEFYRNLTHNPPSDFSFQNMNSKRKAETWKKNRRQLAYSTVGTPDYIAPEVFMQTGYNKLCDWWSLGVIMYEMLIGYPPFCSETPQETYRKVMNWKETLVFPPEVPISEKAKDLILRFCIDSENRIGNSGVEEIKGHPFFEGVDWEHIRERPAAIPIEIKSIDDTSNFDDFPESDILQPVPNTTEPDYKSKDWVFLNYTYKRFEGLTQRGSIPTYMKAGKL
T11 sequence (Q9UPE1 whole entry, the tested form may be a part): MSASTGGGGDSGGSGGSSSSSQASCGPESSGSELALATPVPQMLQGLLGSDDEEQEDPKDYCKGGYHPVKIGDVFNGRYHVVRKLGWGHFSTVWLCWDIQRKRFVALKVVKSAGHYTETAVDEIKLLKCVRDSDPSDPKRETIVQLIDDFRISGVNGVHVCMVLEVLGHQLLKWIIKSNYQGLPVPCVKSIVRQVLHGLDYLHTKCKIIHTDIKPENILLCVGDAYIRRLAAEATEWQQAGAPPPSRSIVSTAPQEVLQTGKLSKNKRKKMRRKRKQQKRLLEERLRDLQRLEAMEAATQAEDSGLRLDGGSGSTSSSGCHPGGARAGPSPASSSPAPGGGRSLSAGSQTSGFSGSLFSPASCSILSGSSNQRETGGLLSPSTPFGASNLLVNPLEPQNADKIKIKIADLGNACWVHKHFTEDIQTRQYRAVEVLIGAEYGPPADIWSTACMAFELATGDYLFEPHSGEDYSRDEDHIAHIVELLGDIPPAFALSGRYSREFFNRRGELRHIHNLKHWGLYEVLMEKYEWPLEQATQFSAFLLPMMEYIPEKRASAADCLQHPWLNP

For `CC(C)(C)c1cccc(NC(=O)C2(C(=O)Nc3cccc(-c4c[nH]c5ncnc(N6CCOCC6)c45)c3)CC2)c1` [Compound 22], the dTm in assay [1] amounted to 2.44 K; in assay [2], 5.91 K; in [3], 6.66 K; in assay [4], 1.67 K; in assay [5], 2.01 K; in assay [6], 0.19 K. For the same compound, the dTm in assay [7] is reported as 5.80 K; in assay [8] it was -2.18 K; in [9] it was -1.93 K; in assay [10] it was 4.67 K; in assay [11], 4.39 K; in assay [12] it was -2.35 K. The same compound had a dTm in [13] of 1.52 K. In addition, the “S(5K)” value is recorded as 0.22 in assay [13] (setting [14]) and 0.221 in assay [13] (setting [15]). The “# >5K” value in assay [13] turned out to be 23.

As to `COc1ccc(NC(=O)C2(C(=O)Nc3cccc(-c4c[nH]c5ncnc(N6CCOCC6)c45)c3)CC2)cc1` [Compound 16], the dTm in assay [1] is 2.53 K; in assay [2], 5.86 K; in [3], 2.19 K; in [4] it was -0.18 K; in [5], 0.11 K; in [6], 0.49 K. Moreover, the dTm in [7] is given as 3.09 K; in [8], -0.09 K; in assay [9] it was -0.0251 K; in assay [10], 4.89 K; in [11] it was 2.74 K; in assay [12] it was -0.19 K. This compound also had a dTm in assay [13] of -2.19 K. Moreover, the “S(5K)” value in assay [13] (setting [14]) is 0.10; in [13] (setting [15]), 0.100. Moreover, the “# >5K” value in [13] was 10.

For the compound `CC(=O)N1CCN(c2nc(Cl)nc3[nH]cc(-c4cccc(NC(=O)Nc5cc(C(C)(C)C)nn5-c5ccc(C)cc5)c4)c23)CC1` [Compound 31], the dTm in [1] is 7.62 K; in [2], 2.43 K; in assay [3], -1.75 K; in [4], -1.76 K; in assay [5] it was -1.59 K; in assay [6], -1.38 K. In addition, the dTm is 6.61 K in [7]; -0.30 K in assay [8]; 0.46 K in assay [9]; 1.28 K in assay [10]; 3.85 K in [11]; -0.73 K in assay [12]. Further, the dTm in assay [13] is reported as -3.84 K. Also, the “S(5K)” value in assay [13] (setting [14]) stood at 0.15; in [13] (setting [15]), 0.149. Moreover, in assay [13], the “# >5K” value is on record as 15.

In the case of `Cc1cc(NC(=O)C2(C(=O)Nc3ccc(F)cc3)CC2)cc(-c2c[nH]c3ncnc(N4CCOCC4)c23)c1` [Compound 6], the dTm was 1.73 K in assay [1]; 2.92 K in assay [2]; 4.54 K in [3]; 0.51 K in [4]; 1.87 K in assay [5]; -0.88 K in [6]. For the same compound, the dTm in assay [7] is given as 5.04 K; in assay [8], -0.19 K; in assay [9] it was 0.73 K; in assay [10], 5.63 K; in [11] it was 4.54 K; in [12] it was 0.00 K. Also, the dTm in assay [13] stood at 0.73 K. The results for the “S(5K)” value in assay [13] (setting [14]) and in assay [13] (setting [15]) were 0.13 and 0.125, respectively. The “# >5K” value in assay [13] is recorded as 13.
